Reference: US9278940B2, “Cyclic amines as bromodomain inhibitors” (Zenith Epigenetics Corp., priority 2012, dated 2016)
Counter-ions that a name gives are not always drawn.

Key:
c-myc = experiment: Inhibition of c-myc expression (mRNA, real-time PCR) in MV4-11 cells; assay type: cell-based; design: key: Active: Compounds with an IC50 value less than 30 μM were deemed to be active.; Not Active: Compounds with an IC50 value less than 30 μM were deemed to be active; conditions: Human AML MV4-11 cells, 3 hours
Outline: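 MV4-11 cells (2.5×10^4) exposed to compound or 0.1% DMSO for 3 h at 37° C, then lysed for mRNA isolation. c-myc and cyclophilin cDNAs co-amplified by duplex RT real-time PCR. IC50 from dose-response curve.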

hIL-6 mRNA = experiment: Inhibition of hIL-6 mRNA transcription in LPS-stimulated U937 macrophages; assay type: cell-based, human; design: key: Active: Compounds with an IC50 value less than 30 μM are deemed to be active.; Not Active: Compounds with an IC50 value less than 30 μM are deemed to be active; conditions: U937 cells differentiated with PMA, 1 h pretreatment, LPS 3 h
Outline: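 U937 cells differentiated to macrophages with 60 ng/mL PMA for 3 days, pretreated 1 h with compound, then stimulated with 1 ug/mL E. coli LPS for 3 h at 37° C. IL-6 mRNA measured by one-step qRT-PCR, Ct normalized to internal control, expressed as fold induction relative to control.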

hApoA-1 mRNA = experiment: Up-regulation of hApoA-1 mRNA transcription in Huh7 cells; assay type: cell-based, human; design: key: Active: Compounds with an EC170 value less than 30 μM are deemed to be active.; Not Active: Compounds with an EC170 value less than 30 μM are deemed to be active; conditions: 48 hrs treatment, ApoA-I mRNA
Outline: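 Huh7 cells plated 24 h before compound, then treated 48 h; mRNA isolated from lysates and ApoA-I quantified by one-step real-time PCR. Fold induction derived from Ct values relative to the matching DMSO control; EC170 reported as activity measure.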

MV4-11 cells = experiment: In vivo efficacy in acute myeloid leukemia xenograft model using MV4-11 cells; design: species or system mouse; conditions: athymic nude mice, MV4-11 xenograft, oral 75 mg/kg b.i.d and 120 mg/kg b.i.d, tumor growth inhibition vs vehicle
Experimental: MV4-11 cells (ATCC) were grown under standard cell culture conditions and (NCr) nu/nu fisol strain of female mice age 6-7 weeks were injected 5e^6 cells/animal in 100 μl PBS+100 μl Matrigel in lower left abdominal flank. Approximately by day 18 after MV4-11 cells injection, mice were randomized based on tumor volume (L×W×H)/2) of average ^˜120 mm^3. Mice were dosed orally with compound at 75 mg/kg b.i.d and 120 mg/kg b.i.d in EA006 formulation at 10 mL/kg body weight dose volume. Tumor measurements were taken with electronic micro caliper and body weights measured on alternate days beginning from dosing period. The average tumor volumes, percent Tumor Growth Inhibition (TGI) and % change in body weights were compared relative to Vehicle control animals. The means, statistical analysis and the comparison between groups were calculated using student's t-test in Excel.

IL-6 and IL-17 cytokines = experiment: In vivo efficacy in mouse endotoxemia model; conditions: C57/Bl6 mice, oral 75 mg/kg, inhibition of IL-6 and IL-17 post 4 hour LPS challenge 0.5 mg/kg intraperitoneally
Experimental: Sub lethal doses of Endotoxin (E. Coli bacterial lipopolysaccharide) were administered to animals to produce a generalized inflammatory response which was monitored by increases in secreted cytokines. Compounds were administered to C57/Bl6 mice orally at 75 mg/kg dose to evaluate inhibition in IL-6 and IL-17 cytokines post 4 hour challenge with Lipopolysaccharide (LPS) at 0.5 mg/kg dose intraperitoneally.

c-myc activity (IC50 < 30 μM) (c-myc): Active
IL-6 activity (IC50 < 30 μM) (hIL-6 mRNA): Active
Compound: COc1cc(OC)c2c(=O)[nH]c(-c3cccc(N4CCN(C(C)C)CC4)n3)nc2c1 [Example 17, 2-(6-(4-Isopropylpiperazin-1-yl)pyridin-2-yl)-5,7-dimethoxyquinazolin-4(3H)-one Hydrochloride]
ApoA-1 activity (EC170 < 30 μM) (hApoA-1 mRNA): Active
In vivo activity (MV4-11 cells): Active
In vivo activity (IL-6 and IL-17 cytokines): Active
